Laboratory results published in patent publication US9095535B2, “GABA release-regulating agent in cerebellum” (KOREA INSTITUTE OF SCIENCE AND TECHNOLOGY, priority 2009, dated 2015).
Where a name gives a salt, the structure may show the parent alone.

Legend:
cerebellar granule cells [1] = assay: Whole-cell patch clamp of tonic GABA current in cerebellar granule cells; type: cell-based, mouse; details: for GABAzine-sensitive current after incubation: 150 μM BAPTA-AM (25 min) or 0.5 μM concanamycin A; for block of GABAzine-sensitive current by anion channel blockers: 100 μM Niflumic acid, DIDS concentration not given
Method: Brain slices were prepared as described in Rossi et al., 2003. For slice recording, either approximately P28 days old or more than 8 weeks old mice were used. Animals were deeply anesthetized with halothane. After decapitation, the brain was quickly excised from the skull and submerged in ice-cold cutting solution (in mM): 250 Sucrose, 26 NaHCO3, 10 D(+)-Glucose, 4 MgCl2, 3 myo-inositol, 2.5 KCl, 2 Sodium pyruvate, 1.25 NaH2PO4, 0.5 Ascorbic acid 0.1 CaCl2, 1 Kynurenic acid, pH 7.4. All solutions were gas-treated with 95% O2-5% CO2. After trimming both sides of vermis, several parasagittal slices with […] thicknesses containing cerebellar lobes were cut using a microtome (Leica VT 1000) and transferred to extracellular ACSF solution (in mM); 126 NaCl, 24 NaHCO3, 1 NaH2PO4, 2.5 KCl, 2.5 CaCl2, 2 MgCl2, 10 D(+)-Glucose, pH 7.4. Slices were incubated for one hour at least at room temperature.
For recording, slices were transferred to an electrophysiological recording chamber (RC-26G, Warner Instruments) which is continuously superfused with ASCF (artificial cerebrospinal fluid, sigma) solution (flow rate; 2 ml/min) and controlled by flower controller (Synaptosoft) and a vacuum pump (Charles Austen, model Capex 8C). Slice chamber was mounted on the stage of an upright microscope (Olympus, Japan) and viewed with an ×60 water immersion objective with differential interference contrast and infrared optics. Cellular morphologies were visually identified by Imaging Workbench 6.0 (INDEC Systems, Inc), camera controller (Hamamatsu, C4742-95), and light microscope controller (Olympus, TH4-200). Fluorescence images were viewed with mercury lamp (Olympus, U-RFL-T). Whole cell voltage-clamp recording was made from granular cell somata or Bergmann glial cells mostly located in 2-5 cerebellar lobules
Pipette resistance for granule cells was typically 10-12 MΩ and pipette was filled with an internal solution containing (in mM) 135 CsCl, 4 NaCl, 0.5 CaCl2, 10 HEPES, 5 EGTA, 2 Mg-ATP, 0.5 Na2-GTP, 10 QX-314, pH adjusted to 7.2 with CsOH (278-285 mOsmol) was used (Rossi, et al., 2003).
(§1) B6 wildtype, GFAP-GFP and hGFAP-CreERT2 trangenic mice (SPF room, Center for Neural Science, KIST, Seoul, Korea) were anaesthetized by intraperitoneal injection of 2% avertin (20 μl/g, sigma) and placed in a stereotaxic frame (David Kopf instrument). pSicoR-b1shRNA-mCherry or scrambled virus (Macrogen) was stereo-injected into cerebellar cortex at a rate of 0.2 μl/min (total 2 μl) using syringe pump (Harvard apparatus) and 25 μl syringe (Hamilton company). The coordination of injection site was 1.7 mm from the lambda and the depth was 1.5-1.7 mm from the skull.
The glia-specific CreERT activation was initiated by intraperitoneal injection of tamoxifen for 5 days prior to lentivirus injection (FIG. 4a,b). […] Tamoxifen or sunflower oil were injected intraperitoncally once a day for 5 days before lentivirus injection.

[2] = system: cell line derived from type-2 astrocytes; details: cited from earlier work
hBest1 = target: T1, hBest1 (Homo sapiens, UniProt O76090); details: cited from earlier work
T1 sequence (O76090 1-585): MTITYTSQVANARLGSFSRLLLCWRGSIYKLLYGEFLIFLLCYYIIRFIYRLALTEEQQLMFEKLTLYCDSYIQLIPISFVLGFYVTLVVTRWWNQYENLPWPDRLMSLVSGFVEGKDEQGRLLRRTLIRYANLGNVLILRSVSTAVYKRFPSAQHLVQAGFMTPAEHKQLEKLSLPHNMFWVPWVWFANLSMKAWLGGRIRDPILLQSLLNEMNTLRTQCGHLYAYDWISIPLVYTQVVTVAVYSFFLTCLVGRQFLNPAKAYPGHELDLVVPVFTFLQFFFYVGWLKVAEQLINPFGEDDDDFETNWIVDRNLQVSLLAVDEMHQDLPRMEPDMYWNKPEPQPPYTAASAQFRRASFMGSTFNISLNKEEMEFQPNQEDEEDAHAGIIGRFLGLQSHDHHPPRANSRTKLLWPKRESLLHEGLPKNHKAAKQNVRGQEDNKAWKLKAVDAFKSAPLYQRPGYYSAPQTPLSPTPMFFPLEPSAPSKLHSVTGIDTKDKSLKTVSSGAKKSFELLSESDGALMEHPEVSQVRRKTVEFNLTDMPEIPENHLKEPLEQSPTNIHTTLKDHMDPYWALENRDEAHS

cerebellar granule cells [3] = assay: Clomeleon imaging of [Cl−]i in cerebellar granule cells (tonic GABA release); type: cell-based, mouse; details: bath application of 10 μM
Method: as §1, with “skull. […]” for “skull.”
Clomeleon, based on fluorescence resonance energy transfer (FRET), is a genetically-encoded fluorescent indicator for Cl^− in which chloride-sensitive yellow fluroscent protein fused with chloride-insensitive cyan fluorescent protein via a flexible peptide linker (Kuner and Augustine, 2000). […]
For imaging, two ROIs (Regions of Interest) covering the granule cell layer and the molecular layer were drawn. […] Fluorescence excitation was produced by two consecutive 200 to 500 ms long light pulses at 0.5 Hz and fluorescence emission was alternately collected at each wavelength with a back-illuminated, cooled CCD camera with the on-chip multiplication gain control (Cascade 512B, Photometrics). […]

Best1 channel = target: T2, Best1 channel (Mus musculus, UniProt O88870); type: cell-based; details: NPPB and NFA at 100 μM; inward current in GABAc sensor cell
T2 construct: mBest1 full-length fragment from pGEM-T easy plasmid (6.65 kb, Promega) was subcloned into pcDNA 3.1; expressed in transfected cells; host or cells: HEK293T (ATCC)
T2 sequence (O88870 1-551 R255K): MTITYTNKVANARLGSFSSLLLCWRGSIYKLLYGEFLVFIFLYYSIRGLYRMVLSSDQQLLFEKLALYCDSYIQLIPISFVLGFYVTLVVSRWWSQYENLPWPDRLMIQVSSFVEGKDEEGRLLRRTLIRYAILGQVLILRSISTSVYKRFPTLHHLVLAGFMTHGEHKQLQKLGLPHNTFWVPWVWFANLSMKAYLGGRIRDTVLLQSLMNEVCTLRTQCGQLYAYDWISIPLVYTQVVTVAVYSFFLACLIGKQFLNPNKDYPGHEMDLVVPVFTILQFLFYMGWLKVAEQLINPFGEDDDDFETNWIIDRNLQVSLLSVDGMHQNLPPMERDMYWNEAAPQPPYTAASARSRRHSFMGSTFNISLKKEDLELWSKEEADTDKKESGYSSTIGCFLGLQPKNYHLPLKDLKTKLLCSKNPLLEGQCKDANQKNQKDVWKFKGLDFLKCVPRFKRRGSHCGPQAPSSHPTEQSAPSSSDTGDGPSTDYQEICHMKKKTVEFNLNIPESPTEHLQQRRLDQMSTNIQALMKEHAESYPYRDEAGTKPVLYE
From the text: For Best1 channel to mediate release of GABA, it has to permeate GABA upon channel opening. To test for GABA permeability of Best1 channel, a two-cell sniffer patch technique was developed to directly measure GABA release via Best1 channel in sensor HEK293T cells that express GABAc, and via other channels that are expressed in source HEK293T cells (FIG. 1b).
pIRES-Best1-dsRED plasmid (obtained by cloning Best1 using pIRES-dsRED (Invitrogen)) and GABAc with GFP (obtained by cloning GABAc using pcDNA3.1 (Invitrogen)) were transfected into HEK 293T cells (ATCC) using Effectene transfection reagent (Qiagen). […]
GABA release was induced by a break-though of membrane patch that goes into a whole-cell configuration in the source cell and such the released GABA was monitored and detected by a neighboring sensor cell. Full activation of GABA current was obtained by bath application of 100 μM GABA and the percentage of full activation was calculated (FIGS. 1c and 1d).
Permeated GABA is detected in sensor as an inward current (bottom traces). […] The GABA permeability of said mutant was determined by using cells obtained by transfecting said mutant into HEK293t cell (ATCC). […] The GABA permeability of said AN01 was determined by using cells obtained by transfecting said mutant into HEK293t cell (ACTT).

GABAc receptors = assay: Patch clamp of GABAc expressing HEK293 cells challenged with 100 μM GABA; type: cell-based; details: 100 μM GABA in absence or presence of 100 μM NFA and 100 μM NPPB
Method: FIGS. 7a and 7b show the results when GABAc expressing HEK293 cells were patch clamped and challenged with 100 μM GABA in the absence and presence of 100 μM NFA and 100 μM NPPB; and
In FIGS. 7a and 7b, GABAc expressing HEK293 cells were patch clamped and challenged with 100 μM GABA in the absence or presence of 100 μM NFA and 100 μM NPPB.

For `CC(=O)OCOC(=O)CN(CC(=O)OCOC(C)=O)c1ccccc1OCCOc1ccccc1N(CC(=O)OCOC(C)=O)CC(=O)OCOC(C)=O` [BAPTA-AM, 1,2-Bis(2-aminophenoxy)ethane-N,N,N′,N′-tetraacetic acid tetrakis(acetoxymethyl ester)], the “GABAzine-sensitive current after incubation” value (cerebellar granule cells [1]) was “significantly reduced”.
For `O=S(=O)(O)c1cc(N=C=S)ccc1C=Cc1ccc(N=C=S)cc1S(=O)(=O)O` [DIDS, 4,4′-diisothiocyanatostilbene-2,2′-disulfonic acid], the “sensitivity of P2X7-induced [3H]-GABA release to inhibitors” value [2] is given as “sensitive”, the “block of GABAzine-sensitive current by anion channel blockers” value (cerebellar granule cells [1]) is given as “blocked the GABAzine-sensitive current significantly” and the “block of hBest1 Cl− channel” value (hBest1) is given as “readily blocked”.
For `COc1ccc(-c2ccc(=N)n(CCCC(=O)O)n2)cc1` [GABAzine, SR95531 hydrobromide], the GABAzine-sensitive current (cerebellar granule cells [1]; naïve mice, holding −60 mV) was 35.68±4.05 pA and the “[Cl−]i in granular cell bodies and parallel fibers” value (cerebellar granule cells [3]) was “markedly decreased”.
With `O=C(O)c1cccnc1Nc1cccc(C(F)(F)F)c1` [NFA, Niflumic acid] the “block of GABAzine-sensitive current by anion channel blockers” value (cerebellar granule cells [1]) was “blocked the GABAzine-sensitive current significantly”, the “GABA release via Best1” value (Best1 channel) was “completely abolished” and the “GABA response of GABAc expressing HEK293 cells” value (GABAc receptors) was “do not have significant impact”. For the same compound, the “block of hBest1 Cl− channel” value (hBest1) was “readily blocked”.
In the case of `CC(=O)Nc1ccc(C=Cc2ccc(N=C=S)cc2S(=O)(=O)O)c(S(=O)(=O)O)c1` [SITS, 4-acetamido-4′-isothiocyanostilbene-2,2′-disulphonic acid], the “sensitivity of P2X7-induced [3H]-GABA release to inhibitors” value [2] is given as “sensitive”.
Work on `CC/C(=C(\c1ccccc1)c1ccc(OCCN(C)C)cc1)c1ccccc1` [Tamoxifen] yielded an NPPB-sensitive current (cerebellar granule cells [1]; hGFAP-CreERT2 mice with Tamoxifen and Best1-shRNA lentivirus, naïve 18.95±2.47 pA) of 19.27±2.2 pA and a GABAzine-sensitive current (cerebellar granule cells [1]; hGFAP-CreERT2 mice, tamoxifen i.p. 5 days, then Best1-shRNA lentivirus (glia-specific rescue)) of 31.31±2.19 pA.
In the case of `C/C=C/[C@H]1O[C@@](O)([C@@H](C)[C@H](O)[C@H](C)[C@H]2OC(=O)/C(OC)=C/C(C)=C/[C@@H](C)[C@@H](O)[C@@H](CC)[C@@H](O)[C@H](C)C/C(C)=C/C=C/[C@@H]2OC)C[C@@H](O[C@H]2C[C@@H](O)[C@H](OC(N)=O)[C@@H](C)O2)[C@@H]1C` [concanamycin A], the “GABAzine-sensitive current after incubation” value (cerebellar granule cells [1]) is reported as “did not have such affect”.
